# ChEMBL document CHEMBL3507680, “University of Dundee, Gates Library screen for HepG2 cell viability”
# Test: Human HepG2 cell viability assay in 384 well format
# Assay type: toxicity, cell-based
# Parameters: dose 125 nL, time 70.5 hour; cytotoxicity at 70.5 h: concentration not given beside the values
# Settings: HepG2 cells, read-out: Inhibition
row,Structure (SMILES),cytotoxicity at 70.5 h [%]
1,CN(C)CCN(Cc1ccc(Cl)cc1)C(=O)c1cc[nH]n1,-3.35
2,O=c1ccc(-n2ccnc2)nn1CCNS(=O)(=O)c1ccc(Cl)s1,3.04
3,CCOCCNCC1CCN(CCO)CC1,-3.07
4,COCCC(Cc1cccc(Br)c1)C(=O)O (configuration not stated),-5.16
5,Cc1nnc(CN2CCCC(c3noc(C4CC4)n3)C2)o1 (configuration not stated),-4.3
6,COCCS(=O)(=O)Cc1csc(NC(C)=O)n1,-16
7,Cc1nnc(NC(=O)CN(C)C2CCCN(c3cccnn3)C2)s1 (configuration not stated),1.26
8,CO[C@H]1CC[C@H]2[C@H]1OCCN2C(=O)c1nn(C)c2ccccc12,-3.21
9,CCN1CCN(C(=O)C2CCOC2)c2ccccc21 (configuration not stated),21
10,COc1cccc(S(=O)(=O)N2CCCCC2CCN2CCCC2=O)c1 (configuration not stated),-7.04
11,COc1ccc(-c2nccn2CCN2CCCCC2)c(OC)c1OC,4.66
12,O=C(Nc1cccc(F)c1)N1CCC(CO)(Nc2ccccc2)CC1,-5.91
13,CCOc1ccccc1N1CCN(CC2(O)CCCNC2)CC1 (configuration not stated),-1.19
14,COc1cccc(CN2CCC3(CCN(C(=O)C4CC=CC4)CC3)C2)c1,-3.83
15,CN(CCO)CC1COCCN1C(=O)C1CCCCC1 (configuration not stated),-14.2
16,C[C@@H](CO)Nc1cc(-c2cn[nH]c2)ncn1,-0.96
17,Cc1nccc(-c2cccc(NCC(=O)N3CCNC(=O)C3)c2)n1,-5.62
18,CCN1CCC(CNC(=O)C2(c3ccc(F)cc3)CC2)C1 (configuration not stated),52
19,COC(=O)c1ccc(C2CC(=O)Oc3cc(C)[nH]c(=O)c32)cc1 (configuration not stated),4.58
20,O=C(NCC1(c2ccc(F)cc2)CCC1)N1CCC2(C1)OCCO2,-8.6
21,CCC(=O)N(CCC(=O)O)Cc1ccc(F)c(F)c1,-7.91
22,Cc1ccsc1CNCCCOc1ccccn1,1.65
23,CCOCCc1nc(Cc2ccccc2)n[nH]1,-14.4
24,Cc1nnc(CN(C)Cc2nc3c(s2)CCCC3)o1,-5.09

row,Structure (SMILES),cytotoxicity at 70.5 h [%]
1,Fc1ccccc1OCCc1cc(C2CNCCO2)n[nH]1 (configuration not stated),-5.54
2,Cc1nn(-c2ccc(F)cc2)c2[nH]nc(N)c12,8.73
3,CC1CCN(CCCNS(=O)(=O)c2cc(F)cc(F)c2)CC1,48.4
4,COc1ccc(C(=O)NCCC(N)=O)c(I)c1,24.4
5,COCCN1CCOCC12CCN(C(=O)c1ccoc1)CC2,-4.83
6,CCOCC(=O)N1C[C@@H]2CC[C@H](Oc3ccccc3)[C@@H]2C1,-3.41
7,Nc1cc(-c2ccc(C(=O)O)cc2O)c2cc[nH]c2n1,4.2
8,Cc1occc1C(=O)N1Cc2nccn2CC(CN2CCOCC2)C1 (configuration not stated),-6.67
9,O=C(N1CCCC1)N1CCn2c(nnc2C2CCCN2)C1 (configuration not stated),-9.61
10,Cc1nc(CN2CCC(CNC(=O)C3(C#N)CCCC3)CC2)oc1C,-5.03
11,COc1c(C2CCCN2C(=O)c2cccnc2N(C)C)c(C)nn1C (configuration not stated),0.616
12,O=S(=O)(C1CC1)N1CCC2(CCN(Cc3nccs3)CC2)CC1,-2.17
13,O=C1C[C@H]2CC[C@@H](CN1)N2C1CCOCC1,-1.49
14,O=C(CNCC1(O)CCCN(Cc2cccc(F)c2F)C1=O)NC1CC1 (configuration not stated),-1.7
15,CC(c1cn2ccsc2n1)N1Cc2ncccc2C1=O (configuration not stated),-4.52
16,Cc1cccc(OCCSCCn2nc3ccccn3c2=O)c1,-11
17,O=C(Nc1cc(C(F)(F)F)ccc1Cl)c1ccc(N2CCOCC2)nn1,-0.689
18,CC(C)C(C)NC(=O)Nc1ccc(CC(N)=O)cc1 (configuration not stated),-3.59
19,COc1cccc(CN2CCC3(COCc4cnc(N(C)C)nc43)C2)c1 (configuration not stated),1.22
20,COc1c(C2CCCN2Cc2c(C)noc2C)c(C)nn1C (configuration not stated),-5.56
21,COc1ccc(C(=O)N2C[C@@H](C)[C@@](C)(O)C2)cc1N1CCOCC1,2.73
22,C=C(C)CNc1ccc(C(=O)N(CC)Cc2nccn2C)cn1,25.1
23,CCN(CC)CCn1cc(NC2CCSCC2)cn1,-1.75
24,Cc1nc(C2CCCN2C(=O)c2cnns2)no1 (configuration not stated),-8.38

row,Structure (SMILES),cytotoxicity at 70.5 h [%]
1,CN(C)C(C(=O)N1CCCC1)c1ccccc1F (configuration not stated),-1.96
2,CN(Cc1ccccc1)c1ccc(C(F)(F)F)cn1,-3.92
3,Cc1nc(C)n(CC2CCCCN2CCOc2cccc(C#N)c2)n1 (configuration not stated),-7.98
4,Cn1cc(C2(C)CN(C(=O)Nc3ccccc3F)CCO2)cn1 (configuration not stated),-5.13
5,O=c1cc(Cn2cncn2)nc2n1CCCN(CC1CCOCC1)C2,-3.57
6,COc1cc(CC2CC(C(N)=O)=NO2)cc2c1OCO2 (configuration not stated),-7.88
7,Cc1cc(N2CCCC(OC(=O)CCN3CCCC3=O)C2)nc(C)n1 (configuration not stated),-5.43
8,Cc1nccn1-c1ccc(CNC(=O)c2ccc([S+](C)[O-])cc2)cn1 (configuration not stated),-3.4
9,O=C(CCC1CC1)N1CCC(n2cc(C3(O)CCCC3)nn2)CC1,24.3
10,CC(=O)NS(=O)(=O)c1ccc(F)cc1C(F)(F)F,33.1
11,CCN1CCCC(c2c(-c3ccccc3)ncn2CCc2c[nH]cn2)C1 (configuration not stated),-11.9
12,N#Cc1ccc(CS(=O)(=O)NC(=O)c2ccc(C#N)cc2)cc1,-14.8
13,CC(NC(=O)CNCCn1cccn1)c1ccc2c(c1)OCCO2 (configuration not stated),-7.87
14,O=C(NCC1(CO)CC1)c1ccccc1F,-8.21
15,COc1cc(Cl)cc(CN2CCCC(N3CCOCC3)C2)c1OC (configuration not stated),-5.79
16,COCCN1CCN(C(=O)c2ccncc2F)Cc2cccnc21,-12.3
17,CC(C)CNC(=O)[C@H]1C[C@@H]2CN(C(=O)NCCc3ccccc3)C[C@H]1O2,-10.9
18,Cc1cc(CNC(=O)Nc2cccc(COCCOC(C)C)c2)no1,-0.772
19,COCC(=O)NCc1cccc(Br)c1,19.4
20,O=C(Cn1cnc2cc3c(cc21)OCCCO3)NC1CCCCC1,-1.58
21,CC(C(=O)N(Cc1ccc(F)cc1)CC(F)(F)F)S(C)(=O)=O (configuration not stated),-1.63
22,c1ccc(CN2CCC3(COCc4cnc(NCC5CC5)nc43)C2)cc1 (configuration not stated),-3.62
23,CCN1C(=O)CCCC12CCCN(C(=O)c1ccoc1C)C2 (configuration not stated),-10.9
24,CCCN1CCN(C(=O)CCn2nc(C(F)(F)F)c(Br)c2C)CC1,-10.4

row,Structure (SMILES),cytotoxicity at 70.5 h [%]
1,C[C@@H]1CN(c2cc(N3CCC(O)CC3)ncn2)C[C@@]1(O)C1CC1,-0.962
2,COCCN1CCN(Cc2noc(C3CC3)n2)CC1C (configuration not stated),12.5
3,O=C(CSc1nnc(N2CCOCC2)s1)NC(=O)Nc1ccccc1,-4.91
4,CCc1cc(C(=O)N2CCC(C3CCN(c4ncccn4)CC3)C2)on1 (configuration not stated),2.57
5,CCc1nc(C2CCCN2CC(=O)Nc2nnc(C)s2)no1 (configuration not stated),-13.4
6,Cc1nn(C)c(C)c1C1CCCN1C(=O)CCCNc1ncccn1 (configuration not stated),-8.51
7,Cc1ccc2c(n1)N(CCN(C)C)CCN(C(=O)c1ccoc1)C2,-11.8
8,COCCN(CCOC)C(=O)c1sc(C)nc1C,-6.51
9,CN(C(=O)c1ccco1)c1nc2c(s1)CCCC2,-3.33
10,COc1ccc(-c2cc3cccn(CC(=O)N4CCOCC4)c-3n2)cc1,10.5
11,CCC(CO)N(Cc1ccsc1)Cc1c(C)nn(C)c1Cl (configuration not stated),-5.33
12,CN(C)CCn1ccnc1C1CCN(C(=O)CCc2cccnc2)CC1,-4.1
13,COC(=O)CN1CCN(c2nc3c(s2)c(C)nn3C)C(C)C1=O (configuration not stated),3.44
14,CCc1nc(Cn2c(=O)c3c(C(F)(F)F)cc(C)nc3n2C)no1,0.468
15,CC(C)(NS(C)(=O)=O)c1nc(-c2ccc(F)cc2Cl)no1,-6.02
16,Cc1nc(CN2C[C@@H]3CN(c4ncccn4)C[C@@H]3C2=O)cs1,-10.3
17,CCn1nc(C)c(S(=O)(=O)Nc2ccccc2C(=O)OC)c1C,11.2
18,CS(=O)(=O)NC1CCN(C(=O)CCC2CCCO2)CC1 (configuration not stated),-0.0133
19,CC(=O)c1cnc(NCCN2CCCC2)nc1C,-0.135
20,Cc1c(CCC(=O)Nc2ccc(Br)cn2)cnn1C,-5.19
21,CC(C)NC(=O)CC1COC2(CCN(Cc3ccccc3)CC2)C1 (configuration not stated),-14.2
22,COCC1Cn2nnc(-c3cnn(C)c3)c2CN1Cc1ccoc1 (configuration not stated),-8.84
23,N#CCc1ccc(OCC(=O)NS(=O)(=O)c2cccs2)cc1,1.77
24,CCn1cc(S(=O)(=O)N2CCCC3(CC=CNC3=O)C2)cn1 (configuration not stated),-0.325

row,Structure (SMILES),cytotoxicity at 70.5 h [%]
1,Cc1occc1C(=O)N1CCC2(CCN(Cc3ccccn3)C2=O)C1 (configuration not stated),5.42
2,CCC(CC)NCC(c1ccccn1)N1CCOCC1 (configuration not stated),2.77
3,CN1CCN(c2cc(NC(=O)Cn3ccc4ccccc43)ncn2)CC1,1.47
4,O=C(NCC(F)(F)F)c1ccc(-c2ccco2)[nH]c1=O,-4.71
5,CC(C)n1ccnc1C1CCN(Cc2ccc(Cl)c(F)c2)CC1,-5.05
6,CS(=O)(=O)N1CCc2[nH]cnc2C12CCN(C(=O)c1ccccc1)CC2,-1.52
7,CC(C)c1nccn1C(C)C(=O)NC1CCOCC1 (configuration not stated),2.76
8,COCCOc1ncccc1C(=O)N(C)c1ccc(OC)nc1,-8.37
9,COc1ccc(C(=O)NCc2ccc(C(=O)O)o2)cc1,27.3
10,CCNC(=O)c1cc2n(n1)CCCO2,-12.7
11,COc1ccc(CNC2CCN(c3ccccc3)C2)cc1O (configuration not stated),19.7
12,Cc1ccc(C(CNC(=O)c2cc(=O)c3ccccc3[nH]2)N(C)C)cc1 (configuration not stated),-4.48
13,O=C(CN1CC(n2cccn2)C1)NCC1(c2ccccc2)CCC1,13.6
14,Cc1ccc(NS(=O)(=O)c2cccc(C#N)c2)c(CN(C)C)c1,0.936
15,CC(=O)Nc1nc(C(=O)N2CCC(Nc3cccnn3)CC2)cs1,-2.92
16,Cn1ncc2c1NC(=O)CC2c1ccccc1Br (configuration not stated),-12.4
17,CN(C)c1cc(C(=O)N2CCCN(Cc3cscn3)CC2)ccn1,-8.49
18,Cc1cc(CNC(=O)Cc2c(C)nc3cc(=O)[nH]n3c2C)no1,-4.77
19,Cc1nc(CNC(=O)NC(C)c2ccc3c(c2)OCCO3)cs1 (configuration not stated),53.9
20,Cc1cnc2n(c1=O)CC(C(=O)NCc1ccccc1Cl)CS2 (configuration not stated),2.42
21,NC(=O)c1cccc(CC2CCN(C(=O)CO)C2)c1 (configuration not stated),-3
